ChEMBL document CHEMBL3351668, “Improvement of antibacterial activity of some sulfa drugs through linkage to certain phthalazin-1(2H)-one scaffolds” (2014)
≈ marks a conversion by molar mass, not a printed value.

test system: Streptococcus pneumoniae; experiment: Antibacterial activity against Streptococcus pneumoniae RCMB 010010 at 100 umol/ml after 24 hrs by well diffusion assay; assay type: functional; conditions: not given

SMILES	diameter of the inhibition zone (DIZ) [mm]
O=C(Cn1nc(-c2ccccc2)c2ccccc2c1=O)Nc1ccc(S(=O)(=O)Nc2ncccn2)cc1	22.3
NS(=O)(=O)c1ccc(NC(=O)Cn2nc(-c3ccccc3)c3ccccc3c2=O)cc1	16.8
NS(=O)(=O)c1ccc(NC(=O)Cn2nc(Cc3ccccc3)c3ccccc3c2=O)cc1	16.2
COc1ccc(Cc2nn(CC(=O)Nc3ccc(S(N)(=O)=O)cc3)c(=O)c3ccccc23)cc1	18.2
COc1ccc(Cc2nn(CCC(=O)Nc3ccc(S(N)(=O)=O)cc3)c(=O)c3ccccc23)cc1	18.3
O=C(Cn1nc(-c2ccccc2)c2ccccc2c1=O)Nc1ccc(S(=O)(=O)Nc2nccs2)cc1	20.3

test system: Enterococcus faecalis; experiment: Antibacterial activity against Enterococcus faecalis RCMB 010068 at 100 umol/ml after 24 hrs by well diffusion assay; assay type: functional; conditions: not given

SMILES	diameter of the inhibition zone (DIZ) [mm]
O=C(Cn1nc(-c2ccccc2)c2ccccc2c1=O)Nc1ccc(S(=O)(=O)Nc2ncccn2)cc1	20.3
NS(=O)(=O)c1ccc(NC(=O)Cn2nc(-c3ccccc3)c3ccccc3c2=O)cc1	15.9
NS(=O)(=O)c1ccc(NC(=O)Cn2nc(Cc3ccccc3)c3ccccc3c2=O)cc1	15.3
COc1ccc(Cc2nn(CC(=O)Nc3ccc(S(N)(=O)=O)cc3)c(=O)c3ccccc23)cc1	16.2
COc1ccc(Cc2nn(CCC(=O)Nc3ccc(S(N)(=O)=O)cc3)c(=O)c3ccccc23)cc1	16.7
O=C(Cn1nc(-c2ccccc2)c2ccccc2c1=O)Nc1ccc(S(=O)(=O)Nc2nccs2)cc1	17

test system: Staphylococcus aureus; experiment: Antibacterial activity against Staphylococcus aureus RCMB 010028 at 100 umol/ml after 24 hrs by well diffusion assay; assay type: functional; conditions: not given

SMILES	diameter of the inhibition zone (DIZ) [mm]
O=C(Cn1nc(-c2ccccc2)c2ccccc2c1=O)Nc1ccc(S(=O)(=O)Nc2ncccn2)cc1	22.3
NS(=O)(=O)c1ccc(NC(=O)Cn2nc(-c3ccccc3)c3ccccc3c2=O)cc1	19.4
NS(=O)(=O)c1ccc(NC(=O)Cn2nc(Cc3ccccc3)c3ccccc3c2=O)cc1	21
COc1ccc(Cc2nn(CC(=O)Nc3ccc(S(N)(=O)=O)cc3)c(=O)c3ccccc23)cc1	22
COc1ccc(Cc2nn(CCC(=O)Nc3ccc(S(N)(=O)=O)cc3)c(=O)c3ccccc23)cc1	22.3
O=C(Cn1nc(-c2ccccc2)c2ccccc2c1=O)Nc1ccc(S(=O)(=O)Nc2nccs2)cc1	18.3

test system: Escherichia coli; experiment: Antibacterial activity against Escherichia coli RCMB 010052 at 100 umol/ml after 24 hrs by well diffusion assay; assay type: functional; conditions: not given

SMILES	diameter of the inhibition zone (DIZ) [mm]
O=C(Cn1nc(-c2ccccc2)c2ccccc2c1=O)Nc1ccc(S(=O)(=O)Nc2ncccn2)cc1	16.1
NS(=O)(=O)c1ccc(NC(=O)Cn2nc(-c3ccccc3)c3ccccc3c2=O)cc1	16.8
NS(=O)(=O)c1ccc(NC(=O)Cn2nc(Cc3ccccc3)c3ccccc3c2=O)cc1	17.6
COc1ccc(Cc2nn(CC(=O)Nc3ccc(S(N)(=O)=O)cc3)c(=O)c3ccccc23)cc1	19.6
COc1ccc(Cc2nn(CCC(=O)Nc3ccc(S(N)(=O)=O)cc3)c(=O)c3ccccc23)cc1	19.9
O=C(Cn1nc(-c2ccccc2)c2ccccc2c1=O)Nc1ccc(S(=O)(=O)Nc2nccs2)cc1	16.3

test system: Salmonella typhimurium; experiment: Antibacterial activity against Salmonella typhimurium RCMB 010072 at 100 umol/ml after 24 hrs by well diffusion assay; assay type: functional, Salmonella enterica subsp. enterica serovar Typhimurium; conditions: not given

SMILES	diameter of the inhibition zone (DIZ) [mm]
O=C(Cn1nc(-c2ccccc2)c2ccccc2c1=O)Nc1ccc(S(=O)(=O)Nc2ncccn2)cc1	18.2
NS(=O)(=O)c1ccc(NC(=O)Cn2nc(-c3ccccc3)c3ccccc3c2=O)cc1	16.9
NS(=O)(=O)c1ccc(NC(=O)Cn2nc(Cc3ccccc3)c3ccccc3c2=O)cc1	18.24
COc1ccc(Cc2nn(CC(=O)Nc3ccc(S(N)(=O)=O)cc3)c(=O)c3ccccc23)cc1	20
COc1ccc(Cc2nn(CCC(=O)Nc3ccc(S(N)(=O)=O)cc3)c(=O)c3ccccc23)cc1	21
O=C(Cn1nc(-c2ccccc2)c2ccccc2c1=O)Nc1ccc(S(=O)(=O)Nc2nccs2)cc1	21

test system: Streptococcus pneumoniae; experiment: Antibacterial activity against Streptococcus pneumoniae RCMB 010010 after 24 hrs by twofold serial dilution technique; assay type: functional; conditions: RCMB 010010, 24 h

SMILES	MIC [mM]
NS(=O)(=O)c1ccc(NC(=O)Cn2nc(-c3ccccc3)c3ccccc3c2=O)cc1	12.5 (≈ 5430 µg/mL)
NS(=O)(=O)c1ccc(NC(=O)Cn2nc(Cc3ccccc3)c3ccccc3c2=O)cc1	25 (≈ 11200 µg/mL)
COc1ccc(Cc2nn(CC(=O)Nc3ccc(S(N)(=O)=O)cc3)c(=O)c3ccccc23)cc1	6.25 (≈ 2990 µg/mL)
COc1ccc(Cc2nn(CCC(=O)Nc3ccc(S(N)(=O)=O)cc3)c(=O)c3ccccc23)cc1	6.25 (≈ 3080 µg/mL)

Compounds with a lower MIC, results first:

MIC [mM]	SMILES
1.56 (≈ 807 µg/mL)	O=C(Cn1nc(-c2ccccc2)c2ccccc2c1=O)Nc1ccc(S(=O)(=O)Nc2nccs2)cc1
0.39 (≈ 200 µg/mL)	O=C(Cn1nc(-c2ccccc2)c2ccccc2c1=O)Nc1ccc(S(=O)(=O)Nc2ncccn2)cc1

test system: Enterococcus faecalis; experiment: Antibacterial activity against Enterococcus faecalis RCMB 010068 after 24 hrs by twofold serial dilution technique; assay type: functional; conditions: RCMB 010068, 24 h

SMILES	MIC [mM]
NS(=O)(=O)c1ccc(NC(=O)Cn2nc(-c3ccccc3)c3ccccc3c2=O)cc1	25 (≈ 10900 µg/mL)
NS(=O)(=O)c1ccc(NC(=O)Cn2nc(Cc3ccccc3)c3ccccc3c2=O)cc1	50 (≈ 22400 µg/mL)
COc1ccc(Cc2nn(CC(=O)Nc3ccc(S(N)(=O)=O)cc3)c(=O)c3ccccc23)cc1	25 (≈ 12000 µg/mL)
COc1ccc(Cc2nn(CCC(=O)Nc3ccc(S(N)(=O)=O)cc3)c(=O)c3ccccc23)cc1	12.5 (≈ 6160 µg/mL)

Results, then the compound that gave them:

MIC [mM]	SMILES
25 (≈ 12900 µg/mL)	O=C(Cn1nc(-c2ccccc2)c2ccccc2c1=O)Nc1ccc(S(=O)(=O)Nc2nccs2)cc1
1.56 (≈ 800 µg/mL)	O=C(Cn1nc(-c2ccccc2)c2ccccc2c1=O)Nc1ccc(S(=O)(=O)Nc2ncccn2)cc1

test system: Staphylococcus aureus; experiment: Antibacterial activity against Staphylococcus aureus RCMB 010028 after 24 hrs by twofold serial dilution technique; assay type: functional; conditions: RCMB 010028, 24 h

SMILES	MIC [mM]
NS(=O)(=O)c1ccc(NC(=O)Cn2nc(-c3ccccc3)c3ccccc3c2=O)cc1	1.56 (≈ 678 µg/mL)
NS(=O)(=O)c1ccc(NC(=O)Cn2nc(Cc3ccccc3)c3ccccc3c2=O)cc1	0.78 (≈ 350 µg/mL)
COc1ccc(Cc2nn(CC(=O)Nc3ccc(S(N)(=O)=O)cc3)c(=O)c3ccccc23)cc1	0.39 (≈ 187 µg/mL)
COc1ccc(Cc2nn(CCC(=O)Nc3ccc(S(N)(=O)=O)cc3)c(=O)c3ccccc23)cc1	0.39 (≈ 192 µg/mL)

The next lines start with the values.

MIC [mM]	SMILES
12.5 (≈ 6470 µg/mL)	O=C(Cn1nc(-c2ccccc2)c2ccccc2c1=O)Nc1ccc(S(=O)(=O)Nc2nccs2)cc1
0.39 (≈ 200 µg/mL)	O=C(Cn1nc(-c2ccccc2)c2ccccc2c1=O)Nc1ccc(S(=O)(=O)Nc2ncccn2)cc1

test system: Escherichia coli; experiment: Antibacterial activity against Escherichia coli RCMB 010052 after 24 hrs by twofold serial dilution technique; assay type: functional; conditions: RCMB 010052, 24 h

SMILES	MIC [mM]
NS(=O)(=O)c1ccc(NC(=O)Cn2nc(-c3ccccc3)c3ccccc3c2=O)cc1	12.5 (≈ 5430 µg/mL)
NS(=O)(=O)c1ccc(NC(=O)Cn2nc(Cc3ccccc3)c3ccccc3c2=O)cc1	6.25 (≈ 2800 µg/mL)
COc1ccc(Cc2nn(CC(=O)Nc3ccc(S(N)(=O)=O)cc3)c(=O)c3ccccc23)cc1	3.12 (≈ 1490 µg/mL)
COc1ccc(Cc2nn(CCC(=O)Nc3ccc(S(N)(=O)=O)cc3)c(=O)c3ccccc23)cc1	3.12 (≈ 1540 µg/mL)

Further lines, results first:

MIC [mM]	SMILES
25 (≈ 12900 µg/mL)	O=C(Cn1nc(-c2ccccc2)c2ccccc2c1=O)Nc1ccc(S(=O)(=O)Nc2nccs2)cc1
25 (≈ 12800 µg/mL)	O=C(Cn1nc(-c2ccccc2)c2ccccc2c1=O)Nc1ccc(S(=O)(=O)Nc2ncccn2)cc1

test system: Salmonella typhimurium; experiment: Antibacterial activity against Salmonella typhimurium RCMB 010072 after 24 hrs by twofold serial dilution technique; assay type: functional, Salmonella enterica subsp. enterica serovar Typhimurium; conditions: Salmonella enterica, RCMB 010072, 24 h

SMILES	MIC [mM]
NS(=O)(=O)c1ccc(NC(=O)Cn2nc(-c3ccccc3)c3ccccc3c2=O)cc1	12.5 (≈ 5430 µg/mL)
NS(=O)(=O)c1ccc(NC(=O)Cn2nc(Cc3ccccc3)c3ccccc3c2=O)cc1	3.12 (≈ 1400 µg/mL)
COc1ccc(Cc2nn(CC(=O)Nc3ccc(S(N)(=O)=O)cc3)c(=O)c3ccccc23)cc1	1.56 (≈ 747 µg/mL)
COc1ccc(Cc2nn(CCC(=O)Nc3ccc(S(N)(=O)=O)cc3)c(=O)c3ccccc23)cc1	1.56 (≈ 768 µg/mL)

The remaining lines, values ahead:

MIC [mM]	SMILES
0.78 (≈ 404 µg/mL)	O=C(Cn1nc(-c2ccccc2)c2ccccc2c1=O)Nc1ccc(S(=O)(=O)Nc2nccs2)cc1
6.25 (≈ 3200 µg/mL)	O=C(Cn1nc(-c2ccccc2)c2ccccc2c1=O)Nc1ccc(S(=O)(=O)Nc2ncccn2)cc1
